The values below come from US12286625B2, “Inhibition of mir-22 miRNA by APT-110” (AptamiR Therapeutics, Inc., priority 2016, dated 2025).

One experiment concerns DIO C57BL/6J male mice. Briefly: APT-110 in 14-week old DIO mice on 60% high fat diet treated 6 weeks. Type of experiment: in vivo, mouse. How it is done: A similar study was performed in 14-week old mice (n=9 per group) which were randomized into 2 groups according to similar body weights and kept on 60% high fat diet (Research Diet D12492) for 6 weeks. One group of mice received subcutaneous injections in the left inguinal fat pad of a custom-designed miR-22-3p inhibitor (APT-110, 18 nucleotides long, 15 mg/kg) on days 0, 2, and 4 of the first week, then once a week for the next 5 weeks. The other group kept on 60% high fat diet received saline injections.
Body composition was measured by NMR at the end of the study (week 6 of treatment). Fat mass was 30% lower in the APT-110 miR-22-3p inhibitor group on 60% fat diet than that in the control group on saline and 60% fat diet (11.29±0.87 vs. 16.11±0.87 grams, p<0.0017). Lean mass was similar in both groups at week 6 of treatment (21.74±0.99 vs. 22.33±0.63 grams).
DIO male C57BL/6J mice were started on a 60% high fat diet at the age of 6-week old and were randomized according to body weight into treatment groups (8 to 12 animals per group) at various ages. After acclimation for 1 to 2 weeks, the mice were administered subcutaneous injections of saline or a miR-22 antagomir in the left inguinal fat pad (injections on Days 0, 2, and 4, then once a week for up to 12 weeks) while they remained on the 60% high fat diet. In some studies, another control group of mice was switched back to a normal 10% fat chow at the time of treatment randomization.
Blood samples were collected by retro-orbital bleeds or cut tip of the tail. Mice underwent body composition analysis by NMR (Bruker LF50 BCA-Analyzer) while they were gently restrained to keep them quiet during this non-invasive measurement. Liver, heart, inguinal fat, perirenal or epididymal fat, and subscapular fat were weighed and collected for histology (10% formalin fixed, then transferred to 70% ethanol for shipment) and gene expression (flash frozen in duplicate). Spleens were weighed and discarded. Blood was collected and processed into serum or plasma at the time of necropsy by cardiocentesis. Serum level of alanine aminotransferase (ALT), aspartate aminotransferase (AST), glucose, insulin, cholesterol and triglycerides were measured.

Experiment [1] deals with human subcutaneous adipocytes. The experiment in a line: O2 consumption rate (OCR), Seahorse XF24 with XF Palmitate-BSA Fatty Acid Oxidation kit, human subcutaneous adipocytes. Type of experiment: cell-based. On the procedure: To characterize the effects of miR-22-3p inhibition on energy utilization in human subcutaneous adipocytes in culture, O2 consumption rate (OCR) was measured with the XF24 Analyzer (Seahorse Bioscience) using the XF Palmitate-BSA Fatty Acid Oxidation substrate kit during the successive addition of Oligomycin, FCCP, and Antimycin/Rotenone, following the manufacturer instructions.
Human subcutaneous pre-adipocytes (ZenBio, NC) were seeded into 96-well plates and differentiated for 7 days, then placed in maintenance medium according to the manufacturer's instructions. On Day 14, the adipocytes were transfected with 50 nM of the miR-22-3p inhibitor APT-110. Medium was exchanged every 2 to 3 days and Seahorse assay was performed on Day 21. Negative control was bovine serum albumin (BSA) and positive control was 100 nM rosiglitazone throughout the culture.

For the substance “5′-5mCpsTpsTps2′OMeCpsTpsTps5mCpsApsAps2′OMeCpsTpsGpsGps5mCpsApsGps5mCpsT-3′ [APT-110]”, in the experiment with DIO C57BL/6J male mice (60% high fat diet, 15 mg/kg SC, saline 22%), the “weight increase week 6 vs Week 0” value was 6%. Besides, the “blood glucose after fasting for 4 hours” value in the experiment on DIO C57BL/6J male mice (Day 35 of treatment, saline 245±8) was 183 ± 11 mg/dL. In the experiment with DIO C57BL/6J male mice (Day 44 of treatment, at necropsy, saline 341±9), this substance returned a random blood glucose of 212 ± 12 mg/dL. In the experiment with DIO C57BL/6J male mice (NMR, week 6), the “fat mass lower than control group on saline” value is 30%. Moreover, the fat mass in the experiment with DIO C57BL/6J male mice (NMR, week 6, saline 16.11±0.87) is listed as 11.29±0.87 grams. In the experiment on DIO C57BL/6J male mice (NMR, week 6, saline 22.33±0.63), this substance yielded a lean mass of 21.74±0.99 grams. Also, the body weight in the experiment on DIO C57BL/6J male mice (Week 0 (baseline)) is 34.15±0.53 grams; with DIO C57BL/6J male mice (week 6, 60% high fat diet, saline 41.73±1.07) it was 36.16±0.67 grams. The substance also had a serum cholesterol with DIO C57BL/6J male mice (at necropsy, saline 164±6) of 110 ± 5 mg/dL. Besides, in experiment [1] (APT-110 50 nM + palmitate), the “non-mitochondrial respirations and proton leak on addition of palmitate” value was “dramatic increase”. In experiment [1] (APT-110 50 nM, assay Day 21), this substance yielded a maximum respiration increase of 33%. Also, the “basal OCR vs control adipocytes” value in experiment [1] (basal conditions, rosiglitazone 100 nM or APT-110 50 nM, control BSA) was found to be 2 fold.
